Results: PubChem BioAssay (NCI)
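48-hour exposure; five concentrations; linearly interpolated endpoints. TGI denotes the concentration required for complete inhibition of growth.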

Experiments:
Assay in all cases: NCI anticancer screen, dose series, 48 h
[1] = tested on: A549 NSCLC
[2] = tested on: ACHN renal
[3] = tested on: NCI/ADR-RES ovarian
[4] = tested on: NCI-H23 lung
[5] = tested on: SF-295 CNS
[6] = tested on: M14 melanoma
[7] = tested on: UACC-257 melanoma
[8] = tested on: CCRF-CEM leukemia
[9] = tested on: T-47D breast
[10] = tested on: OVCAR-3 ovarian
[11] = tested on: U251 CNS
[12] = tested on: SK-OV-3 ovarian
[13] = tested on: EKVX NSCLC
[14] = tested on: MALME-3M melanoma
[15] = tested on: MOLT-4 leukemia
[16] = tested on: SK-MEL-5 melanoma
[17] = tested on: MDA-MB-231 breast
[18] = tested on: SN12C renal
[19] = tested on: OVCAR-5 ovarian
[20] = tested on: SW-620 colon
[21] = tested on: OVCAR-8 ovarian
[22] = tested on: MDA-MB-435
[23] = tested on: MCF7 breast
[24] = tested on: KM12 colon
[25] = tested on: SNB-75 CNS
[26] = tested on: SNB-19 CNS
[27] = tested on: K-562 leukemia
[28] = tested on: BT-549 breast
[29] = tested on: HCT-116 colon
[30] = tested on: OVCAR-4 ovarian
[31] = tested on: HT29 colon
[32] = tested on: 786-0 renal
[33] = tested on: UO-31 renal
[34] = tested on: RPMI-8226 leukemia
[35] = tested on: A498 renal
[36] = tested on: COLO 205 colon
[37] = tested on: MDA-N
[38] = tested on: HCC-2998 colon
[39] = tested on: NCI-H226 lung
[40] = tested on: SR leukemia
[41] = tested on: CAKI-1 renal
[42] = tested on: UACC-62 melanoma
[43] = tested on: NCI-H460 lung
[44] = tested on: SK-MEL-2 melanoma
[45] = tested on: DU-145 prostate
[46] = tested on: HOP-62 NSCLC
[47] = tested on: IGROV1 ovarian
[48] = tested on: RXF 393 renal
[49] = tested on: PC-3 prostate
[50] = tested on: SF-268 CNS
[51] = tested on: HS 578T breast
[52] = tested on: HCT-15 colon
[53] = tested on: NCI-H522 lung
[54] = tested on: SK-MEL-28 melanoma
[55] = tested on: HL-60(TB) leukemia
[56] = tested on: TK-10 renal
[57] = tested on: LOX IMVI melanoma
[58] = tested on: SF-539 CNS

`CCOC(=O)c1nnsc1NC(=O)NCCCCCCn1c(=O)n(CCCCCCNC(=O)Nc2snnc2C(=O)OCC)c(=O)n(CCCCCCNC(=O)Nc2snnc2C(=O)OCC)c1=O` showed a TGI [1] greater than 100 µM, a TGI [2] greater than 100 µM and a TGI [3] greater than 100 µM. The TGI [4] was 90.4 µM, the TGI [5] was greater than 100 µM and the TGI [6] was greater than 100 µM. The TGI [7] was greater than 100 µM, the TGI [8] was greater than 100 µM and the TGI [9] was greater than 100 µM. It also gave a TGI [10] greater than 100 µM, a TGI [11] of 36.8 µM and a TGI [12] greater than 100 µM. For the same molecule, the TGI [13] was greater than 100 µM, the TGI [14] was 53.2 µM and the TGI [15] was greater than 100 µM. The TGI [16] was greater than 100 µM, the TGI [17] was 41.1 µM and the TGI [18] was greater than 100 µM. The TGI [19] was greater than 100 µM, the TGI [20] was greater than 100 µM and the TGI [21] was greater than 100 µM. The TGI [22] was greater than 100 µM, the TGI [23] was greater than 100 µM and the TGI [24] was greater than 100 µM. For the same molecule, the TGI [25] was 83 µM, the TGI [26] was 38.2 µM and the TGI [27] was greater than 100 µM. It also gave a TGI [28] greater than 100 µM, a TGI [29] greater than 100 µM and a TGI [30] greater than 100 µM. It also gave a TGI [31] greater than 100 µM, a TGI [32] of 30.3 µM and a TGI [33] greater than 100 µM. It also gave a TGI [34] of 46.4 µM, a TGI [35] greater than 100 µM and a TGI [36] greater than 100 µM. For the same molecule, the TGI [37] was greater than 100 µM, the TGI [38] was greater than 100 µM and the TGI [39] was 47.7 µM. The TGI [40] was greater than 100 µM, the TGI [41] was greater than 100 µM and the TGI [42] was 35.1 µM. For the same molecule, the TGI [43] was 44.3 µM, the TGI [44] was greater than 100 µM and the TGI [45] was greater than 100 µM. The TGI [46] was 69.8 µM, the TGI [47] was greater than 100 µM and the TGI [48] was 86.2 µM. It also gave a TGI [49] greater than 100 µM, a TGI [50] of 48.4 µM and a TGI [51] of 50 µM. It also gave a TGI [52] greater than 100 µM.

`CCC1(CC)C(=O)N(C(=O)c2ccc(C)cc2)N(C(=O)c2ccc(C)cc2)C1=O` gave a TGI [1] greater than 75 µM, a TGI [2] greater than 75 µM and a TGI [3] greater than 75 µM. For the same molecule, the TGI [53] was 51.6 µM, the TGI [4] was greater than 75 µM and the TGI [5] was greater than 75 µM. It also gave a TGI [6] greater than 75 µM, a TGI [7] greater than 75 µM and a TGI [8] greater than 75 µM. It also gave a TGI [9] greater than 75 µM, a TGI [10] of 46.4 µM and a TGI [54] greater than 75 µM. For the same molecule, the TGI [11] was greater than 75 µM, the TGI [12] was greater than 75 µM and the TGI [55] was greater than 75 µM. For the same molecule, the TGI [13] was greater than 75 µM, the TGI [14] was 62.7 µM and the TGI [15] was 58.5 µM. For the same molecule, the TGI [16] was greater than 75 µM, the TGI [17] was greater than 75 µM and the TGI [18] was greater than 75 µM. For the same molecule, the TGI [19] was greater than 75 µM, the TGI [20] was greater than 75 µM and the TGI [21] was greater than 75 µM. The TGI [22] was greater than 75 µM, the TGI [23] was greater than 75 µM and the TGI [24] was greater than 75 µM. The TGI [25] was greater than 75 µM, the TGI [26] was greater than 75 µM and the TGI [27] was greater than 75 µM. It also gave a TGI [28] greater than 75 µM, a TGI [29] greater than 75 µM and a TGI [30] greater than 75 µM. It also gave a TGI [31] greater than 75 µM, a TGI [32] greater than 75 µM and a TGI [33] greater than 75 µM. It also gave a TGI [56] greater than 75 µM, a TGI [34] greater than 75 µM and a TGI [36] greater than 75 µM. For the same molecule, the TGI [57] was greater than 75 µM, the TGI [37] was greater than 75 µM and the TGI [38] was greater than 75 µM. For the same molecule, the TGI [39] was greater than 75 µM, the TGI [40] was 68.8 µM and the TGI [41] was greater than 75 µM. It also gave a TGI [42] greater than 75 µM, a TGI [43] greater than 75 µM and a TGI [44] greater than 75 µM. For the same molecule, the TGI [45] was greater than 75 µM, the TGI [46] was greater than 75 µM and the TGI [47] was greater than 75 µM. For the same molecule, the TGI [48] was greater than 75 µM, the TGI [49] was greater than 75 µM and the TGI [50] was greater than 75 µM. The TGI [51] was greater than 75 µM and the TGI [52] was greater than 75 µM.

Molecule `C[C@@H](c1ccccc1)N1CN(C(=O)OCc2ccccc2)C(CO)C1=O` (some centres undefined) has a TGI [1] greater than 100 µM, a TGI [2] greater than 100 µM and a TGI [3] greater than 100 µM. For the same molecule, the TGI [53] was greater than 100 µM, the TGI [4] was greater than 100 µM and the TGI [5] was greater than 100 µM. For the same molecule, the TGI [6] was greater than 100 µM, the TGI [7] was greater than 100 µM and the TGI [8] was greater than 100 µM. It also gave a TGI [9] greater than 100 µM, a TGI [10] greater than 100 µM and a TGI [54] greater than 100 µM. For the same molecule, the TGI [11] was greater than 100 µM, the TGI [12] was greater than 100 µM and the TGI [55] was greater than 100 µM. For the same molecule, the TGI [13] was greater than 100 µM, the TGI [14] was greater than 100 µM and the TGI [15] was greater than 100 µM. For the same molecule, the TGI [58] was greater than 100 µM, the TGI [16] was greater than 100 µM and the TGI [17] was greater than 100 µM. It also gave a TGI [18] greater than 100 µM, a TGI [19] greater than 100 µM and a TGI [20] greater than 100 µM. The TGI [21] was greater than 100 µM, the TGI [22] was greater than 100 µM and the TGI [23] was greater than 100 µM. For the same molecule, the TGI [24] was greater than 100 µM, the TGI [25] was greater than 100 µM and the TGI [26] was greater than 100 µM. The TGI [27] was greater than 100 µM, the TGI [28] was greater than 100 µM and the TGI [29] was greater than 100 µM. It also gave a TGI [30] greater than 100 µM, a TGI [31] greater than 100 µM and a TGI [32] greater than 100 µM. It also gave a TGI [56] greater than 100 µM, a TGI [34] greater than 100 µM and a TGI [36] greater than 100 µM. For the same molecule, the TGI [57] was greater than 100 µM, the TGI [37] was greater than 100 µM and the TGI [38] was greater than 100 µM. It also gave a TGI [39] greater than 100 µM, a TGI [40] greater than 100 µM and a TGI [41] greater than 100 µM. It also gave a TGI [42] greater than 100 µM, a TGI [43] greater than 100 µM and a TGI [44] greater than 100 µM. It also gave a TGI [45] greater than 100 µM, a TGI [46] greater than 100 µM and a TGI [47] greater than 100 µM. It also gave a TGI [48] greater than 100 µM, a TGI [49] greater than 100 µM and a TGI [50] greater than 100 µM. It also gave a TGI [51] greater than 100 µM and a TGI [52] greater than 100 µM.
